The text below walks through data of article PMC7377376, “Drug targeting CYP2E1 for the treatment of early-stage alcoholic steatohepatitis” (PLoS ONE, 2020).

Where two headings read alike, the source gives them in different places.

In one data set the test system is CYP2E1. Conditions: cited from earlier work.
Data set [1] has as its target T1, human cytochrome P450 2E1 (Homo sapiens, UniProt P05181).
T1 construct: purchased BD Biosciences
In words: Steady-state p-nitrophenol oxidation, CYP2E1 inhibition in SUPERSOMES
It counts as biochemical. How it is done:
Initial velocities of the oxidation of p-nitrophenol (p-NP) to p-nitrocatechol by human cytochrome P450 2E1 were determined by measuring the absorption at 535 nm or 546 nm to determine product formation as described before.
Alternatively, 100 mM HEPES pH 7.6 was additionally used for the enzyme kinetic measurements. A final concentration of either 50 nM enzyme in form of SUPERSOMES™ from BD Biosciences or microsomes in case of cell culture experiments was added. Reaction was initiated by adding 500 μM (enzyme kinetic measurements) or 0.1 mM (cell culture experiments) NADPH after preincubation at 37° C and stopped by adding 20% trichloroacetic acid (TCA) after 30 minutes to ensure linearity of product formation. The protein concentration for the microsomal fraction was determined by Bradford assay to calculate the results expressed as units of specific activity defined as the amount of enzyme that consumes 1 μmol/L of NADPH per hour per microgram of protein. Inhibitor stock solutions were prepared in 0.1% DMSO and diluted to a final DMSO concentration of 0.003% in the reaction mixture at most to avoid enzyme inhibition by this solvent. Inhibitory constants (Ki) were calculated by non-linear fitting of initial velocities. Maximum inhibition could not be achieved since final inhibitor concentrations were limited by DMSO.
Supplementary file pone.0235990.s002.tif: S2 Fig CYP2E1 inhibition by data base inhibitors. To ascertain whether an imidazole containing compound is already commercially available and better suited for development as a drug can-didate, we performed a large virtual library screening of the ZINK database. We found 14,738 hits. The 5,261 commercially available compounds could be classified as 4,710 synthetic and 551 natural molecules. After docking and final scoring process, the seven best synthetic and the three best natural candidates were purchased and tested in vitro for their potential to inhibit CYP2E1 activity. Different concentrations of these compounds dissolved in DMSO were added to 110 μM p-Nitrophenol in 100 mM HEPES buffer pH 7.6 and SUPERSOMES™ with 50 nM human CYP 2E1 to calculate relative activity values. […] 20 μM corresponds to a DMSO volume of 0.02% (v/v). (TIF) Click here for additional data file.

The subject of data set [2] is ethanol-fed Wistar rats. In words: Oxidative stress parameters in liver of ethanol-fed rats (Lieber-DeCarli diet). It counts as in vivo. To be noted: rat liver. From the text:
(§1) A total of 68 female Wistar rats (Institute of Pharmacology and Biochemistry Breeding House, Minsk, Belarus) aged 80–90 days and weighting 180–200 g at the beginning of the experiments were used in the study. Each rat group (n = 6–8) was housed in a separate cage and had free access to the liquid diet during the full study period. Prior to the study, the animals were habituated for seven days to the cage conditions and experimental handling. The rats were maintained in a controlled experimental environment (20–25°C, 40–50% humidity, 12 h light per day, room with a 12-h light/dark cycle).
(§2) Rats were divided into ten groups characterized by the diet and the test compounds (S1 Table). Group 1 is the first control group in which a normal solid standard diet was fed for 12 weeks. All other groups received the liquid Lieber-DeCarli (LDC) diet (S2 Table), which combines food and drink in a liquid manner. It was prepared by ssniff Spezialdiäten GmbH, Soest. The addition of maltodextrin to this diet should compensate the pure caloric effect of ethanol, whereby 1.77 g maltodextrin replaces 1 g ethanol. The calorie value of both the control and ethanol diets was the same: 35% calories from fat, 11% from carbohydrates, 18% from protein and 36% from ethanol.
(§3) In the first two weeks rats of all groups–with the exception of group 1 –were fed with LDC diet plus maltodextrin in an appropriate amount to adapt the animals to the liquid diet. Group 2 is the second control group in which the isocaloric diet was administered for further 10 weeks until the end of the experiment. […] The test compounds I-ol, I-an and UDCA were dissolved in a 0.8% aqueous HPMC gel to obtain the appropriate concentrations: (1) I-ol with 0.4, 4 and 40 mg/kg b. w. (2) I-an with 0.4, 4 and 40 mg/kg b. w. (3) UDCA with 40 mg/kg b. w. Rats of group 2 and 3 received only HPMC as a placebo. The LDC diets were fed ad libitum and their intake per cage was controlled daily. The corresponding bottles were stored in the cages from 08:00 a. m. until 06:00 p. m. and replaced by drinking water bottles overnight until 08:00 a. m. in the next morning. Every day at the same time, the test compounds or only HPMC were administered intragastrically by oral gavage with an administration volume of 2 ml/kg b. w. After ten weeks of treatment, the rats were anesthetized with an intraperitoneal injection of a 5% pentobarbital solution and then killed by aorta scarification. Their livers were dissected and liver pieces frozen and stored in liquid nitrogen. A part of the liver was fixed for histological investigations. Blood was collected before sacrifice, centrifuged for serum preparation and finally stored in liquid nitrogen.
The generation of reactive oxygen species (ROS) in rat liver was evaluated by NADPH-induced chemiluminescence with amplification by both luminol for the detection of superoxide (SRA) radical anion and lucigenin detecting hydrogen peroxide as described by Müller-Peddinhaus. In short, liver pieces were homogenized in 0.1 M sodium phosphate buffer pH 7.4. The homogenates were centrifuged at 9,000 x g at 0°C and aliquots were used for the measurement. Reduced glutathione (GSH) was determined by a modified Ellman`s method: 0.2 ml of the liver homogenates’ supernatant were added to 1.6 ml of an EDTA-/sodium […] solution. The absorbance was read at […] against blanks. GSH solution—prepared immediately before use—served as a standard. End products of the lipid peroxidation reaction are equivalent to TBARS (thiobarbituric acid-reacting substances) and their concentration was measured according to Buege et al.. The enzymatic activity of cytosolic glutathione peroxidase (GPx) and microsomal glutathione reductase (GR) were determined as described by Buko at al.. Catalase activity was evaluated by spectrophotometric measurement using hydrogen peroxide as a substrate according to Beers et al.. […]

For data set [3], the system named is ethanol-fed Wistar rats. In words: Liver and serum lipid parameters of ethanol-fed rats. Type of data set: in vivo, rat.
Text: as §1, §2, §3
(§4) The serum marker enzyme activities, alanine aminotransferase (ALT), aspartate aminotransferase (AST), alkaline phosphatase (AP) and gamma-glutamyltransferase (γ-GT) as well as triglycerides and bilirubin were measured according to manufacturer’s instructions using standard commercial kits from Lachema (PLIVA-Lachema Diagnostika, Czech Republic). Serum concentrations of leptin, adiponectin and TNF-alpha were analyzed using commercial ELISA test kits: BioCat GmbH (Heidelberg, German) for adiponectin and TNF-alpha, BioVendor Laboratory Medicine Inc. (Brno, Czech Republic) for leptin. Insulin serum concentration was determined by radioimmunoassay using the commercially available kit RIO-insulin-PG-J125 (IBOCH, Minsk, Belarus). Glucose serum concentration was determined by the Accu-Check Active blood glucose testing system from Roche-Diagnostics GmbH (Mannheim, Germany).
Lipids were extracted with a chloroform: methanol mixture (2:1 v/v). Neutral lipids and phospholipids were separated into classes by thin-layer chromatography (TLC). Lipid fractions (triglycerides, cholesterol and its fractions) were measured in extracts from scraped spots by routine methods using the appropriate commercial kits. […]

Data set [4] deals with ethanol-fed Wistar rats. In words: Serum liver enzyme activities of ethanol-fed rats. Type of data set: in vivo, rat.
Text: as §1, §2, §3, §4

Data set [5] deals with ethanol-fed Wistar rats. In words: Liver histopathology of ethanol-fed rats. Type of data set: in vivo, rat. To be noted: I-ol, I-an in their higher concentrations; UDCA 40 mg/kg b.w.; H.E. staining. As for the experimental part:
as §3
Liver samples were selected randomly, fixed in Bouin`s solution and embedded in paraffin wax. Histological sections were prepared and stained with haematoxylin and eosin. Other liver samples were fixed in a solution containing formaldehyde, paraformaldehyde and glutaraldehyde with a subsequent post-fixation in 1% osmium containing phosphate buffer pH 7.4 for further analysis. Liver tissue was embedded in a mixture of butyl-methyl-metacrylates. Semifine sections of 0.5–1.0 μm were stained with Asur II, methylen blue and basic fuxine.

The conditions of data set [6]: cited from earlier work.
Setting [7] is: literature survey, ref not given.
The mark [8] stands for this setting: average over 0.4/4/40 mg/kg b.w. (UDCA 40 mg/kg), oral, 10 weeks.
The mark [9] stands for this setting: average over doses (UDCA 40 mg/kg).
[10] abbreviates: liver, average over doses (UDCA 40 mg/kg).
The mark [11] stands for this setting: serum, average over doses (UDCA 40 mg/kg).

T1 sequence (P05181 whole entry): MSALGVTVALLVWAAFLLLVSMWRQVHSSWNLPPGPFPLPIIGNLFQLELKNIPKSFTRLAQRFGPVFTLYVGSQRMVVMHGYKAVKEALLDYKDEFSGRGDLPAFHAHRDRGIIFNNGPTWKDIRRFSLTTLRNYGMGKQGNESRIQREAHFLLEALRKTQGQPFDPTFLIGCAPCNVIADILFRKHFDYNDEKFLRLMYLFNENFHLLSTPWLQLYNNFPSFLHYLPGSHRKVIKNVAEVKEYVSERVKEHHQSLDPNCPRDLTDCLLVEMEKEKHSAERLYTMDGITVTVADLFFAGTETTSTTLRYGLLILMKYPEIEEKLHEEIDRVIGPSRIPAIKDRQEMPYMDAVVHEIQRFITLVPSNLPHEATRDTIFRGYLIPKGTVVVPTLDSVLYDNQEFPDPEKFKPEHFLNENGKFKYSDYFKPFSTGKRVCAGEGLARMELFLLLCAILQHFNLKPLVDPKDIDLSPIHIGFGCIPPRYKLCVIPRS

On to `C[N+](C)(C)CC(=O)O` [Betaine], for which the “effect on CYP2E1 activity (in words)” value in the data set on CYP2E1 (setting [7]) is “Betaine reduces CYP2E1 activity only to a minor extend, while attenuating ASH. People with high cholesterol should use betaine anhydrous cautiously”.
`C[S+](C)[O-]` [DMSO]: the IC50 in data set [1] (solvent inhibition of CYP2E1) is recorded as 0.065 % (v/v).
Regarding `OCCCCCCCCCCn1ccnc1` [I-decanol, 10-imidazolyl-1-decanol], the “inhibitory effect on CYP2E1 (in words)” value in data set [1] (human CYP2E1 SUPERSOMES) was “almost identical”.
In the case of `OCCCCCCCn1ccnc1` [I-heptanol, 7-imidazolyl-1-heptanol], the “inhibitory effect on CYP2E1 (in words)” value in data set [1] (human CYP2E1 SUPERSOMES) is on record as “dramatic decrease in inhibitory performance”.
`OCCCCCCCCCn1ccnc1` [I-nonanol, 9-imidazolyl-1-nonanol]: the “inhibitory effect on CYP2E1 (in words)” value in data set [1] (human CYP2E1 SUPERSOMES) was “almost identical”.
Take `C[N+](C)(C)CCOP(=O)([O-])OCCCCCCCCCCCCn1ccnc1` [I-phosphocholine, 12-Imidazolyl-dodecan-1-yl-phosphocholine]: affinity in data set [1] (human CYP2E1 SUPERSOMES, p-nitrophenol oxidation, competitive model with offset) was put at a Ki of 22 µM.
For `C[S+](CC[C@H](N)C(=O)[O-])C[C@H]1O[C@@H](n2cnc3c(N)ncnc32)[C@H](O)[C@@H]1O` (stereo partly drawn) [S-adenosyl-L-methionine (SAM), S-adenosyl-L-methionine], in the data set on CYP2E1 (setting [7]), the “effect on CYP2E1 activity (in words)” value is reported as “CYP2E1 activity (SAM is a non-competitive inhibitor), reactive oxygen species, anti-fibrogenic action, clinical trial”.
For the compound `C[S+]([O-])CCCCN=C=S` (stereo not shown) [Sulforaphane], in the data set on CYP2E1 (setting [7]), the “effect on CYP2E1 activity (in words)” value is “Sulforaphane does not inhibit CYP2E1 in the knockin mouse modell”.
In the case of `C[C@H](CCC(=O)O)[C@H]1CC[C@H]2[C@@H]3[C@@H](O)C[C@@H]4C[C@H](O)CC[C@]4(C)[C@H]3CC[C@]12C` [UDCA, ursodeoxycholic acid, reference compound], the “reduction of ethanol effect on hydrogen peroxide” value in the data set with ethanol-fed Wistar rats [2] (I-ol, I-an 0.4/4/40 mg/kg b.w., UDCA 40 mg/kg, oral, 10 weeks) is recorded as 46%. In addition, the “GPx activity decrease compared to disease group” value with ethanol-fed Wistar rats [2] (UDCA 40 mg/kg b.w.) turned out to be 21%. Besides, in the data set with ethanol-fed Wistar rats [2] (average over 0.4/4/40 mg/kg b.w. (UDCA 40 mg/kg)), the “reduction of ethanol effect on TBARS” value is recorded as “no statistic significant reduction”. The “reduction of ethanol effect on superoxide radical anion (SRA)” value with ethanol-fed Wistar rats [2] (average over 0.4/4/40 mg/kg b.w. (UDCA 40 mg/kg), daily oral gavage, 10 weeks) is reported as “no statistic significant reduction”. For the same compound, in the data set on ethanol-fed Wistar rats [2] (setting [8]), the “hydrogen peroxide decrease compared to disease group” value was 32% and the “reduction of ethanol effect on reduced glutathione (GSH)” value is on record as “no statistically significant changes”. Also, the “reduction of ethanol effect on glutathione reductase (GR) activity” value in the data set on ethanol-fed Wistar rats [2] (setting [9]) is “no statistically significant result”. Further, the “GPx activity below the reference value in healthy animals” value in the data set on ethanol-fed Wistar rats [2] (highest concentration (UDCA 40 mg/kg b.w.)) turned out to be 28%. In addition, in the data set on ethanol-fed Wistar rats [3] (liver, UDCA 40 mg/kg), the “liver cholesterol decrease compared to disease group” value is 11% and the “reduction of ethanol effect on hepatic cholesterol” value is 78%. Besides, the “reduction of ethanol effect on hepatic triglycerides” value with ethanol-fed Wistar rats [3] (liver, average over 0.4/4/40 mg/kg b.w. (UDCA 40 mg/kg), oral, 10 weeks) turned out to be 55%. Moreover, in the data set with ethanol-fed Wistar rats [3] (setting [10]), the “liver phospholipids decrease compared to disease group” value stood at 20%, the “liver triglycerides decrease compared to disease group” value is on record as 31% and the “reduction of ethanol effect on hepatic phospholipids” value was “completely eliminated”. For the same compound, in the data set with ethanol-fed Wistar rats [3] (serum, UDCA 40 mg/kg), the “reduction of ethanol effect on serum LDL cholesterol” value was “no significant effect” and the “reduction of ethanol effect on serum VLDL” value is recorded as “no statistically significant reduction”. Also, in the data set with ethanol-fed Wistar rats [3] (setting [11]), the “reduction of ethanol effect on serum triglycerides” value is 79% and the “serum triglycerides decrease compared to disease group” value was determined as 39%. Further, the “reduction of ethanol effect on γ-GT activity” value with ethanol-fed Wistar rats [4] (UDCA 40 mg/kg) was determined as 61%. Moreover, in the data set on ethanol-fed Wistar rats [4] (setting [9]), the “ALT activity decrease compared to disease group” value stood at 33%, the “AP activity decrease compared to disease group” value amounted to 20%, the “AST activity decrease compared to disease group” value was found to be 19% and the “reduction of ethanol effect on AST activity” value was determined as 83%. Further, the “γ-GT activity decrease compared to disease group” value with ethanol-fed Wistar rats [4] (setting [9]) was found to be 33%. Also, the “reduction of ethanol effect on alkaline phosphatase (AP) activity” value with ethanol-fed Wistar rats [4] (on average (UDCA 40 mg/kg)) amounted to 66%. Moreover, the “liver morphology (histopathology, in words)” value in the data set on ethanol-fed Wistar rats [5] was “reduce the histopathological effects of ethanol in a comparable way”. Moreover, in data set [6] (28–30 mg/kg/day, patients with ulcerative colitis and PSC), the “long-term high-dose safety finding” value is listed as “increased risk of colorectal neoplasia”. The “mortality at maximum follow-up versus no intervention group” value in data set [6] (network meta-analysis, alcoholic liver disease) is given as “higher”.
In the case of Silymarin, the “effect on CYP2E1 activity (in words)” value with CYP2E1 was “Has no influence on CYP2E1 activity. Clinical trails with patients having alcoholic liver cirrhosis showed controversial results”.
